“And” between values parts separate entries of the source, which are not always exact repeats. Identical values can stand only once. Toxic doses and inconclusive results are not listed. Rule as the data show it: active = T/C of 150% or more; inactive = T/C below 125%.
System: L1210 leukemia ip in BDF1 mice, survival T/C
Experiment: NCI In Vivo Anticancer Drug Screen. Data for tumor model L1210 Leukemia (intraperitoneal) in B6D2F1 (BDF1) mice
Details: endpoint: mean survival time, higher = longer survival
Method in brief: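 Value reflects the ratio of survival in compound-treated mice to survival in vehicle-treated controls, with both groups carrying the same transplanted tumor.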

[1] = dose: 100.0 mg/kg/injection, schedule: Q01DX009 (ip), vehicle: saline with Tween-80
[2] = dose: 100.0 mg/kg/injection, schedule: Q04DX003 (ip), vehicle: Klucel (hydroxypropylcellulose) (HPC)
[3] = dose: 200.0 mg/kg/injection, schedule: Q01DX009 (ip), vehicle: Klucel (hydroxypropylcellulose) (HPC)
[4] = dose: 200.0 mg/kg/injection, schedule: Q04DX003 (ip), vehicle: Klucel (hydroxypropylcellulose) (HPC)
[5] = dose: 400.0 mg/kg/injection, schedule: Q04DX003 (ip), vehicle: Klucel (hydroxypropylcellulose) (HPC)
[6] = dose: 100.0 mg/kg/injection, schedule: Q04DX003 (ip), vehicle: saline
[7] = dose: 200.0 mg/kg/injection, schedule: Q04DX003 (ip), vehicle: saline
[8] = dose: 50.0 mg/kg/injection, schedule: Q04DX003 (ip), vehicle: Klucel (hydroxypropylcellulose) (HPC)
[9] = dose: 100.0 mg/kg/injection, schedule: Q04DX003 (ip), vehicle: saline with Tween-80
[10] = dose: 200.0 mg/kg/injection, schedule: Q04DX003 (ip), vehicle: saline with Tween-80
[11] = dose: 400.0 mg/kg/injection, schedule: Q04DX003 (ip), vehicle: saline with Tween-80

Measured: T/C

NC(=O)c1cccc(Cl)n1
inactive: dose: 12.5 mg/kg/injection, schedule: Q04DX002 (ip), vehicle: Klucel (hydroxypropylcellulose) (HPC) 92 % of control | dose: 25.0 mg/kg/injection, schedule: Q04DX002 (ip), vehicle: Klucel (hydroxypropylcellulose) (HPC) 87 % of control | dose: 50.0 mg/kg/injection, schedule: Q04DX002 (ip), vehicle: Klucel (hydroxypropylcellulose) (HPC) 90 % of control

Clc1ccc(C#CP(C#Cc2ccc(Cl)cc2)C#Cc2ccc(Cl)cc2)cc1
inactive: dose: 50.0 mg/kg/injection, schedule: Q01DX009 (ip), vehicle: saline with Tween-80 88 % of control | [1] 103 % of control

O=C(Nc1ccccc1)N1CC12CCCCC2
inactive: [2] 104 % of control | [3] 98 % of control | [4] 110 % of control | dose: 400.0 mg/kg/injection, schedule: Q01DX009 (ip), vehicle: Klucel (hydroxypropylcellulose) (HPC) 95 % of control | [5] 100 % of control

C=C(C)CC#N
inactive: [6] 104 % of control | [7] 109 % of control

O=C1COc2ccccc2N1
inactive: [8] 96 % of control | dose: 100.0 mg/kg/injection, schedule: Q01DX001 (ip), vehicle: other 103 % of control | [2] 94 % of control | dose: 200.0 mg/kg/injection, schedule: Q01DX001 (ip), vehicle: other 96 % of control | [4] 96 % of control

COC(=O)c1ccccc1N=NNc1cccc(SC)c1
inactive: [9] 95 % of control | [10] 93 % of control

Cc1cc(O)ccc1SC#N
inactive: dose: 3.12 mg/kg/injection, schedule: Q04DX003 (ip), vehicle: saline + alcohol 97 % of control | dose: 6.25 mg/kg/injection, schedule: Q04DX003 (ip), vehicle: saline + alcohol 101 % of control | dose: 12.5 mg/kg/injection, schedule: Q04DX003 (ip), vehicle: saline + alcohol 101 % of control

CC(C)(C)NC(=O)CCC1C2C=CC(C2)C1C(=O)NC(C)(C)C (stereo not drawn)
inactive: dose: 100.0 mg/kg/injection, schedule: Q01DX001 (ip), vehicle: Klucel (hydroxypropylcellulose) (HPC) 97 % of control | [2] 101 % of control | dose: 200.0 mg/kg/injection, schedule: Q01DX001 (ip), vehicle: Klucel (hydroxypropylcellulose) (HPC) 92 % of control | [4] 97 % of control | dose: 400.0 mg/kg/injection, schedule: Q01DX001 (ip), vehicle: Klucel (hydroxypropylcellulose) (HPC) 98 % of control | [5] 107 % of control

[N-]=[N+]=Nc1nc(Cl)nc2c1ncn2Cc1ccccc1
inactive: dose: 75.0 mg/kg/injection, schedule: Q01DX001 (ip), vehicle: other 97 % of control

O=C(CCCN1CCN(c2ccccn2)CC1)c1ccc(F)cc1
inactive: dose: 12.5 mg/kg/injection, schedule: Q01DX009 (ip), vehicle: Klucel (hydroxypropylcellulose) (HPC) 96 % of control and 106 % of control | dose: 25.0 mg/kg/injection, schedule: Q01DX009 (ip), vehicle: Klucel (hydroxypropylcellulose) (HPC) 97 % of control and 101 % of control and 106 % of control | dose: 25.0 mg/kg/injection, schedule: Q04DX003 (ip), vehicle: Klucel (hydroxypropylcellulose) (HPC) 97 % of control | dose: 50.0 mg/kg/injection, schedule: Q01DX009 (ip), vehicle: Klucel (hydroxypropylcellulose) (HPC) 108 % of control and 109 % of control and 114 % of control | [8] 108 % of control | dose: 100.0 mg/kg/injection, schedule: Q01DX009 (ip), vehicle: Klucel (hydroxypropylcellulose) (HPC) 108 % of control and 110 % of control | [2] 103 % of control | [3] 105 % of control and 110 % of control | [4] 123 % of control

NC(N)=N/N=C(/c1ccccc1)c1ccc(F)cc1
inactive: dose: 6.25 mg/kg/injection, schedule: Q01DX009 (ip), vehicle: carboxymethylcellulose (CMC) 95 % of control | dose: 12.5 mg/kg/injection, schedule: Q01DX009 (ip), vehicle: carboxymethylcellulose (CMC) 97 % of control | dose: 15.0 mg/kg/injection, schedule: Q01DX Z (ip), vehicle: saline 95 % of control | dose: 15.0 mg/kg/injection, schedule: Q01DX Z (oral), vehicle: saline 107 % of control | dose: 20.0 mg/kg/injection, schedule: Q01DX001 (ip), vehicle: other 107 % of control | dose: 20.0 mg/kg/injection, schedule: Q01DX009 (ip), vehicle: carboxymethylcellulose (CMC) 94 % of control | dose: 20.0 mg/kg/injection, schedule: Q01DX009 (ip), vehicle: other 103 % of control | dose: 25.0 mg/kg/injection, schedule: Q01DX009 (ip), vehicle: carboxymethylcellulose (CMC) 103 % of control | dose: 30.0 mg/kg/injection, schedule: Q01DX Z (ip), vehicle: saline 108 % of control | dose: 30.0 mg/kg/injection, schedule: Q01DX Z (oral), vehicle: saline 107 % of control | dose: 40.0 mg/kg/injection, schedule: Q01DX001 (ip), vehicle: other 110 % of control | dose: 40.0 mg/kg/injection, schedule: Q01DX009 (ip), vehicle: carboxymethylcellulose (CMC) 94 % of control | dose: 40.0 mg/kg/injection, schedule: Q01DX009 (ip), vehicle: other 90 % of control | dose: 50.0 mg/kg/injection, schedule: Q01DX009 (ip), vehicle: carboxymethylcellulose (CMC) 115 % of control | dose: 80.0 mg/kg/injection, schedule: Q01DX009 (ip), vehicle: carboxymethylcellulose (CMC) 118 % of control

CCOc1ccc(C(=O)Nc2c(C)cc(C)cc2C)cc1
inactive: [1] 96 % of control | [9] 100 % of control | dose: 200.0 mg/kg/injection, schedule: Q01DX009 (ip), vehicle: saline with Tween-80 96 % of control | [10] 93 % of control | dose: 400.0 mg/kg/injection, schedule: Q01DX009 (ip), vehicle: saline with Tween-80 101 % of control | [11] 94 % of control

CCOC(=O)C1CC2(c3ccccc3)C(=O)C1(c1ccccc1)C(c1ccccc1)=C2c1ccccc1 (stereo not drawn)
inactive: dose: 50.0 mg/kg/injection, schedule: Q01DX001 (ip), vehicle: carboxymethylcellulose (CMC) 100 % of control | dose: 100.0 mg/kg/injection, schedule: Q01DX001 (ip), vehicle: carboxymethylcellulose (CMC) 94 % of control | dose: 200.0 mg/kg/injection, schedule: Q01DX001 (ip), vehicle: carboxymethylcellulose (CMC) 100 % of control | dose: 400.0 mg/kg/injection, schedule: Q01DX001 (ip), vehicle: carboxymethylcellulose (CMC) 97 % of control

CC/C=C(\CCC)C1(CC)C(=O)NC(=O)NC1=O
inactive: dose: 75.0 mg/kg/injection, schedule: Q01DX001 (ip), vehicle: saline 94 % of control | dose: 150.0 mg/kg/injection, schedule: Q01DX001 (ip), vehicle: saline 105 % of control

CC(O)Cn1cnc2c1c(=O)n(C)c(=O)n2C (stereo not drawn)
inactive: dose: 100.0 mg/kg/injection, schedule: Q01DX009 (ip), vehicle: saline 93 % of control | [6] 95 % of control | dose: 200.0 mg/kg/injection, schedule: Q01DX009 (ip), vehicle: saline 95 % of control | [7] 95 % of control | dose: 400.0 mg/kg/injection, schedule: Q04DX003 (ip), vehicle: saline 94 % of control

CCOC(CN=CC1CCC=CO1)OCC (stereo not drawn)
inactive: [9] 91 % of control | [10] 96 % of control | [11] 95 % of control

From PubChem BioAssay AID248 (DTP/NCI, 2004)
